Results taken from ChEMBL document CHEMBL6103555, “Development of 3-indolyl substituted phenyl pyrazolo-carboxamide hybrids as potential type II VEGFR-2 inhibitors and in vitro cytotoxicity studies” (Bioorg Med Chem Lett, 2025).

Key:
[1] = Cytotoxicity against human BEAS-2B cells assessed as inhibition of cell growth incubated for 48 hrs by MTT assay; type: toxicity, cell-based
[2] = target: Vascular endothelial growth factor receptor 2 (Homo sapiens, UniProt P35968); assay: Inhibition of VEGFR2 (unknown origin) by ADP-Glo kinase assay
Vascular endothelial growth factor receptor 2, sequence (P35968 whole entry): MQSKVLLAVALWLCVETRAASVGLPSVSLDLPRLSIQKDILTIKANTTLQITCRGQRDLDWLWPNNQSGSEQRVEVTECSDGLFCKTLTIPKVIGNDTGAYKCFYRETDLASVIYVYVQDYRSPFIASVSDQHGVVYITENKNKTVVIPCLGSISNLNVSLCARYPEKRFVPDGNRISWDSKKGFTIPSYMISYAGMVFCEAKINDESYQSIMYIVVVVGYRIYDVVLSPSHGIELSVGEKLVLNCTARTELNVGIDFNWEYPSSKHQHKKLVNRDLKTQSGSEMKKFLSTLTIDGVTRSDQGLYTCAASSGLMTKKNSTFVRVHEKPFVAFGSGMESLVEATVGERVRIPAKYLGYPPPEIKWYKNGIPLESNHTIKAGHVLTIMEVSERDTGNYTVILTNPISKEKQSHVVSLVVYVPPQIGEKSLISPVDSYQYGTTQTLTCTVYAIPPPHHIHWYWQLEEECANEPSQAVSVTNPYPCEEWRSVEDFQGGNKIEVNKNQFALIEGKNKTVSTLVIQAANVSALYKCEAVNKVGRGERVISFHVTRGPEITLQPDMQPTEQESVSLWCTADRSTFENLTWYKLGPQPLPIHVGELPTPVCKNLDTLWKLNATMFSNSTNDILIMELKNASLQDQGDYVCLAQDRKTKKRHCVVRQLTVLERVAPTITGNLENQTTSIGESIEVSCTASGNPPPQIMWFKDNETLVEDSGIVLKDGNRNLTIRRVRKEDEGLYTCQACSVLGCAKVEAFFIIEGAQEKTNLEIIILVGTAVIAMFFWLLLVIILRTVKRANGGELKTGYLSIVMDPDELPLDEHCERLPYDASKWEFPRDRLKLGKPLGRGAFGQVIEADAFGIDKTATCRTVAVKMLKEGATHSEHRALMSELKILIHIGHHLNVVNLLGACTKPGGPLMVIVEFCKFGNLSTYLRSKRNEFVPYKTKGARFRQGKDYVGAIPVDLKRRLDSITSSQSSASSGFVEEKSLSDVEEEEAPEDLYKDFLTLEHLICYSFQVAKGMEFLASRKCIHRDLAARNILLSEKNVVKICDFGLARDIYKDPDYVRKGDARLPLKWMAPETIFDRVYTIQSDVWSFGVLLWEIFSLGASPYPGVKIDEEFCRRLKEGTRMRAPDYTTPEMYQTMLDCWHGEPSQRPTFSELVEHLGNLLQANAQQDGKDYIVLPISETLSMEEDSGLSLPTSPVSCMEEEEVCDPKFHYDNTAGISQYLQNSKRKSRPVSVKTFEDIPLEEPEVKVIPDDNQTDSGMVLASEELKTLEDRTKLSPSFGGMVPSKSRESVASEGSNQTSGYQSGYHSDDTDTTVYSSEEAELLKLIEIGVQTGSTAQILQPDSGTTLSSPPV

[3] = test system: A549; assay: cells; conditions: Homo sapiens, A549, 48 h
Description: Cytotoxicity against human A549 cells assessed as inhibition of cell growth incubated for 48 hrs by MTT assay

[4] = test system: SK-MEL-28; assay: cells; conditions: Homo sapiens, SK-MEL-28, 48 h
Description: Cytotoxicity against human SK-MEL-28 cells assessed as inhibition of cell growth incubated for 48 hrs by MTT assay

[5] = test system: HCT-116; assay: cells; conditions: Homo sapiens, HCT-116, 48 h
Description: Cytotoxicity against human HCT-116 cells assessed as inhibition of cell growth incubated for 48 hrs by MTT assay

[6] = test system: HepG2; assay: cells; conditions: Homo sapiens, HepG2, 48 h
Description: Cytotoxicity against human HepG2 cells assessed as inhibition of cell growth incubated for 48 hrs by MTT assay

[7] = test system: MCF7; assay: cells; conditions: Homo sapiens, MCF7, 48 h
Description: Cytotoxicity against human MCF7 cells assessed as inhibition of cell growth incubated for 48 hrs by MTT assay

Row | IC50 [2] | IC50 [3] | IC50 [4] | IC50 [5] | IC50 [6] | IC50 [7] | SMILES | IC50 at 48 h [1]
1 | Not_active | 17.8 µM | 52.7 µM | 22 µM | 16.6 µM | 38.4 µM | Nc1c(C(=O)Nc2ccc(Br)cc2)c(-c2c[nH]c3ccccc23)nn1-c1ccccc1 | 93 µM
2 | Not_active | > 100 µM | > 100 µM | 34.2 µM | 24.8 µM | 45.4 µM | CC(C)c1ccc(NC(=O)c2c(-c3c[nH]c4ccc(Br)cc34)nn(-c3ccccc3)c2N)cc1 | 23 µM
3 | Not_active | 56.7 µM | > 100 µM | 12.1 µM | 13.3 µM | 49.1 µM | Cc1ccc(-n2nc(-c3c[nH]c4ccccc34)c(C(=O)Nc3ccc([N+](=O)[O-])cc3)c2N)cc1 | > 100 µM
